# From patent US11447481B2, “Microbiocidal oxadiazole derivatives” (SYNGENTA PARTICIPATIONS AG, priority 2017, dated 2022)
# Columns and labels:
# [1] = system: Puccinia recondita f. sp. tritici; assay: Fungicidal activity against Puccinia recondita f. sp. tritici / wheat / leaf disc preventative (brown rust); type: in vivo; settings: foliar, wheat leaf segments, preventative (inoculated 1 day after application), compared to untreated control
# Protocol: (§1) Leaf disks or leaf segments of various plant species are cut from plants grown in a greenhouse. The cut leaf disks or segments are placed in multiwell plates (24-well format) onto water agar. The leaf disks are sprayed with a test solution before (preventative) or after (curative) inoculation. Compounds to be tested are prepared as DMSO solutions (max. 10 mg/ml) which are diluted to the appropriate concentration with 0.025% Tween20 just before spraying. The inoculated leaf disks or segments are incubated under defined conditions (temperature, relative humidity, light, etc.) according to the respective test system. A single evaluation of disease level is carried out 3 to 14 days after inoculation, depending on the pathosystem. Percent disease control relative to the untreated check leaf disks or segments is then calculated.
# (§2) Wheat leaf segments cv. Kanzler are placed on agar in multiwell plates (24-well format) and sprayed with the formulated test compound diluted in water. The leaf disks are inoculated with a spore suspension of the fungus 1 day after application. The inoculated leaf segments are incubated at 19° C. and 75% rh under a light regime of 12 h light/12 h darkness in a climate cabinet and the activity of a compound is assessed as percent disease control compared to untreated when an appropriate level of disease damage appears in untreated check leaf segments (7-9 days after application).
# [2] = system: Puccinia recondita f. sp. tritici; assay: Fungicidal activity against Puccinia recondita f. sp. tritici / wheat / leaf disc curative (brown rust); type: in vivo; settings: foliar, 24 h, wheat leaf segments, curative (applied 1 day after inoculation), compared to untreated control
# Protocol: as §1
# as §2, with “format).” for “format) and sprayed with the formulated test compound diluted in water.”, “segments” for “disks”, “fungus. Plates are stored in darkness at 19° C. and 75% rh. The formulated test compound diluted in water is applied” for “fungus”, “inoculation.” for “application.”, “The” for “The inoculated”, “(6-8” for “(7-9”
# Phakopsora pachyrhizi = assay: Fungicidal activity against Phakopsora pachyrhizi / soybean / leaf disc preventative (Asian soybean rust); type: in vivo; settings: foliar, soybean leaf disks, compared to untreated control
# Protocol: as §1
# Soybean leaf disks are placed on water agar in multiwell plates (24-well format) and sprayed with the formulated test compound diluted in water. One day after application leaf discs are inoculated by spraying a spore suspension on the lower leaf surface. After an incubation period in a climate cabinet of 24-36 hours in darkness at 20° C. and 75% rh leaf disc are kept at 20° C. with 12 h light/day and 75% rh. The activity of a compound is assessed as percent disease control compared to untreated when an appropriate level of disease damage appears in untreated check leaf disks (12-14 days after application).
# [3] = system: Glomerella lagenarium (Colletotrichum lagenarium); assay: Fungicidal activity against Glomerella lagenarium (Colletotrichum lagenarium) liquid culture / cucumber / preventative (anthracnose); type: cell-based; settings: Colletotrichum orbiculare, liquid culture (PDB), growth inhibition measured photometrically 3-4 days after application, compared to untreated control
# Protocol: Mycelia fragments or conidia suspensions of a fungus prepared either freshly from liquid cultures of the fungus or from cryogenic storage, are directly mixed into nutrient broth. DMSO solutions of the test compound (max. 10 mg/ml) are diluted with 0.025% Tween20 by a factor of 50 and 10 µl of this solution is pipetted into a microtiter plate (96-well format). The nutrient broth containing the fungal spores/mycelia fragments is then added to give an end concentration of the tested compound. The test plates are incubated in the dark at 24° C. and 96% relative humidity. The inhibition of fungal growth is determined photometrically after 2 to 7 days, depending on the pathosystem, and percent antifungal activity relative to the untreated check is calculated.
# Conidia of the fungus from cryogenic storage are directly mixed into nutrient broth (PDB potato dextrose broth). After placing a (DMSO) solution of test compound into a microtiter plate (96-well format), the nutrient broth containing the fungal spores is added. The test plates are incubated at 24° C. and the inhibition of growth is measured photometrically 3-4 days after application.
melting point [°C],SMILES,pest or weed control at 200 ppm [1] [%],pest or weed control at 200 ppm [2] [%],pest or weed control at 200 ppm (Phakopsora pachyrhizi) [%],inhibition of growth at 20 ppm [3] [%]
,"O=S1(=O)C=CCN1Cc1ccc(-c2noc(C(F)(F)F)n2)cc1 [Compound A-1, 2-[[4-[5-(trifluoromethyl)-1,2,4-oxadiazol-3-yl]phenyl]methyl]-3H-isothiazole 1,1-dioxide]",≥ 80,≥ 80,≥ 80,≥ 80
,"CC(=O)n1ccc(=O)n1Cc1ccc(-c2noc(C(F)(F)F)n2)cc1 [Compound A-2, 1-acetyl-2-[[4-[5-(trifluoromethyl)-1,2,4-oxadiazol-3-yl]phenyl]methyl]pyrazol-3-one]",≥ 80,≥ 80,≥ 80,≥ 80
,"COc1c(-c2c(C)cc(C)cc2C)c(=O)n(Cc2ccc(-c3noc(C(F)(F)F)n3)cc2)n1C [Compound A-3, 5-methoxy-1-methyl-2-[[4-[5-(trifluoromethyl)-1,2,4-oxadiazol-3-yl]phenyl]methyl]-4-(2,4,6-trimethylphenyl)pyrazol-3-one]",,,≥ 80,≥ 80
,"O=c1ccn(-c2ccc(Cl)cc2)n1Cc1ccc(-c2noc(C(F)(F)F)n2)cc1 [Compound A-4, 1-(4-chlorophenyl)-2-[[4-[5-(trifluoromethyl)-1,2,4-oxadiazol-3-yl]phenyl]methyl]pyrazol-3-one]",≥ 80,,≥ 80,
,"CC(c1ccc(-c2noc(C(F)(F)F)n2)cc1)n1nnn(C)c1=O (centres unmarked) [Compound B-1, 1-methyl-4-[1-[4-[5-(trifluoromethyl)-1,2,4-oxadiazol-3-yl]phenyl]ethyl]tetrazol-5-one]",≥ 80,≥ 80,≥ 80,≥ 80
111.1 to 114,"O=c1sc(-c2ccccc2)nn1Cc1ccc(-c2noc(C(F)(F)F)n2)cc1 [Compound B-2, 5-phenyl-3-[[4-[5-(trifluoromethyl)-1,2,4-oxadiazol-3-yl]phenyl]methyl]-1,3,4-thiadiazol-2-one]",,,,≥ 80
133.8 to 136,"Cc1nn(Cc2ccc(-c3noc(C(F)(F)F)n3)cc2)c(=O)o1 [Compound B-3, 5-methyl-3-[[4-[5-(trifluoromethyl)-1,2,4-oxadiazol-3-yl]phenyl]methyl]-1,3,4-oxadiazol-2-one]",≥ 80,≥ 80,≥ 80,≥ 80
129 to 130.8,"COc1nn(Cc2ccc(-c3noc(C(F)(F)F)n3)cc2)c(=O)n1C [Compound B-4, 5-methoxy-4-methyl-2-[[4-[5-(trifluoromethyl)-1,2,4-oxadiazol-3-yl]phenyl]methyl]-1,2,4-triazol-3-one]",≥ 80,≥ 80,≥ 80,≥ 80
,"Cn1nnn(Cc2ccc(-c3noc(C(F)(F)F)n3)c(F)c2)c1=O [Compound B-5, 1-[[3-fluoro-4-[5-(trifluoromethyl)-1,2,4-oxadiazol-3-yl]phenyl]methyl]-4-methyl-tetrazol-5-one]",≥ 80,≥ 80,≥ 80,≥ 80
104 to 106,"Cn1nnn(Cc2ccc(-c3noc(C(F)(F)F)n3)cc2)c1=O [Compound B-6, 1-methyl-4-[[4-[5-(trifluoromethyl)-1,2,4-oxadiazol-3-yl]phenyl]methyl]tetrazol-5-one]",≥ 80,≥ 80,≥ 80,≥ 80
,"CC1=CC(C)C(=O)N1Cc1ccc(-c2noc(C(F)(F)F)n2)cc1 (centres unmarked) [Compound B-7, 3,5-dimethyl-1-[[4-[5-(trifluoromethyl)-1,2,4-oxadiazol-3-yl]phenyl]methyl]-3H-pyrrol-2-one]",≥ 80,,≥ 80,≥ 80
117 to 120,Cc1ccn(C(C)c2ccc(-c3noc(C(F)(F)F)n3)cc2)c(=O)c1 (centres unmarked) [Compound C-1],≥ 80,≥ 80,≥ 80,≥ 80
106.5 to 107.6,"O=c1ccc(Br)nn1Cc1ccc(-c2noc(C(F)(F)F)n2)cc1 [Compound C-2, 6-bromo-2-[[4-[5-(trifluoromethyl)-1,2,4-oxadiazol-3-yl]phenyl]methyl]pyridazin-3-one]",≥ 80,≥ 80,≥ 80,≥ 80
,"Cc1cc(C)n(Cc2ccc(-c3noc(C(F)(F)F)n3)cc2)c(=O)c1 [Compound C-3, 4,6-dimethyl-1-[[4-[5-(trifluoromethyl)-1,2,4-oxadiazol-3-yl]phenyl]methyl]pyridin-2-one]",,≥ 80,,
88 to 90,"Cc1cccc(=O)n1Cc1ccc(-c2noc(C(F)(F)F)n2)cc1 [Compound C-4, 6-methyl-1-[[4-[5-(trifluoromethyl)-1,2,4-oxadiazol-3-yl]phenyl]methyl]pyridin-2-one]",≥ 80,≥ 80,≥ 80,≥ 80
,"Cc1cccc(=O)n1Cc1cc(F)c(-c2noc(C(F)(F)F)n2)cc1F [Compound C-15, 1-[[2,5-difiuoro-4-[5-(trifluoromethyl)-1,2,4-oxadiazol-3-yl]phenyl]methyl]-6-methyl-pyridin-2-one]",≥ 80,≥ 80,≥ 80,≥ 80
,"Cc1cccc(=O)n1C(C)c1ccc(-c2noc(C(F)(F)F)n2)cc1 (centres unmarked) [Compound C-16, 6-methyl-1-[1-[4-[5-(trifluoromethyl)-1,2,4-oxadiazol-3-yl]phenyl]ethyl]pyridin-2-one]",≥ 80,≥ 80,,≥ 80
,"Cc1cccc(=O)n1Cc1cc(F)c(-c2noc(C(F)(F)F)n2)c(F)c1 [Compound C-17, 1-[[3,5-difluoro-4-[5-(trifluoromethyl)-1,2,4-oxadiazol-3-yl]phenyl]methyl]-6-methyl-pyridin-2-one]",≥ 80,≥ 80,,≥ 80
146 to 148,"Cc1ccn(CCc2ccc(-c3noc(C(F)(F)F)n3)cc2)c(=O)c1 [Compound C-18, 4-methyl-1-[2-[4-[5-(trifluoromethyl)-1,2,4-oxadiazol-3-yl]phenyl]ethyl]pyridin-2-one]",≥ 80,≥ 80,,≥ 80
139.5 to 140,"O=C1OCC(c2ccc(Cl)cc2Cl)=NN1Cc1ccc(-c2noc(C(F)(F)F)n2)cc1 [Compound E-1, 5-(2,4-dichlorophenyl)-3-[[4-[5-(trifluoromethyl)-1,2,4-oxadiazol-3-yl]phenyl]methyl]-6H-1,3,4-oxadiazin-2-one]",,,,
161 to 167,"Cn1nc(Cl)n(-c2ccc(-c3noc(C(F)(F)F)n3)cc2)c1=O [Compound F-1, 5-chloro-2-methyl-4-[4-[5-(trifluoromethyl)-1,2,4-oxadiazol-3-yl]phenyl]-1,2,4-triazol-3-one]",≥ 80,,,≥ 80
